Measurements: PMC4859410 (Pharmacogenetics and genomics, 2010)
Like-named read-outs stand apart in the source and are kept apart here.

Columns and labels:
OATP1A2 = molecular target: T1, OATP1A2 (Homo sapiens, UniProt P46721); experiment: Drug uptake in X. laevis oocytes injected with SLCO1A2; assay type: in vitro ADME; conditions: 1 µM (darunavir 3 µM), 18°C, 1hr, mean ± SD; for Drug uptake, OATP1A2: OATP1A2 cRNA injected oocytes; for Drug uptake, Water: water injected control oocytes (Table 1)
T1 sequence (P46721 1-670): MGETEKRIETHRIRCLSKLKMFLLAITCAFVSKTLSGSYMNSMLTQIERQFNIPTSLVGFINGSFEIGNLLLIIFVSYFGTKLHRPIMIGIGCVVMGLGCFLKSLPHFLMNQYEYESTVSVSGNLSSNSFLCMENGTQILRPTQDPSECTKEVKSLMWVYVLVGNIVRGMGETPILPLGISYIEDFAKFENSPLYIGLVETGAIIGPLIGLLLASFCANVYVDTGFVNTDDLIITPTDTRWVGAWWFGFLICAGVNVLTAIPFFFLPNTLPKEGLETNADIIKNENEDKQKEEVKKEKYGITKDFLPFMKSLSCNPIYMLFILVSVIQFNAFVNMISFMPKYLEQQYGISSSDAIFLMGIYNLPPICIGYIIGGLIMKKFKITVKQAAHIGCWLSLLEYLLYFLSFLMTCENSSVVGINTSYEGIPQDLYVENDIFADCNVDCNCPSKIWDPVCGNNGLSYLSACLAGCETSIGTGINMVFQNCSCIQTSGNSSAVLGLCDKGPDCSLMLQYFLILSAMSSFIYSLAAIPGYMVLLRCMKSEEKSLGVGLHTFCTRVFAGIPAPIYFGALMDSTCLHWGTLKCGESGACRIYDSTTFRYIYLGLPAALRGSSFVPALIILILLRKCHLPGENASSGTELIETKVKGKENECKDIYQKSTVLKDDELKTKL

OATP1B1 [1] = molecular target: T2, OATP1B1 (Homo sapiens, UniProt Q9Y6L6); experiment: Drug uptake in X. laevis oocytes injected with SLCO1B1; assay type: in vitro ADME; conditions: 1 µM (darunavir 3 µM), 18°C, 1hr, mean ± SD; for Drug uptake, OATP1B1: OATP1B1 cRNA injected oocytes; for Drug uptake, Water: water injected control oocytes (Table 2)
T2 sequence (Q9Y6L6 1-691): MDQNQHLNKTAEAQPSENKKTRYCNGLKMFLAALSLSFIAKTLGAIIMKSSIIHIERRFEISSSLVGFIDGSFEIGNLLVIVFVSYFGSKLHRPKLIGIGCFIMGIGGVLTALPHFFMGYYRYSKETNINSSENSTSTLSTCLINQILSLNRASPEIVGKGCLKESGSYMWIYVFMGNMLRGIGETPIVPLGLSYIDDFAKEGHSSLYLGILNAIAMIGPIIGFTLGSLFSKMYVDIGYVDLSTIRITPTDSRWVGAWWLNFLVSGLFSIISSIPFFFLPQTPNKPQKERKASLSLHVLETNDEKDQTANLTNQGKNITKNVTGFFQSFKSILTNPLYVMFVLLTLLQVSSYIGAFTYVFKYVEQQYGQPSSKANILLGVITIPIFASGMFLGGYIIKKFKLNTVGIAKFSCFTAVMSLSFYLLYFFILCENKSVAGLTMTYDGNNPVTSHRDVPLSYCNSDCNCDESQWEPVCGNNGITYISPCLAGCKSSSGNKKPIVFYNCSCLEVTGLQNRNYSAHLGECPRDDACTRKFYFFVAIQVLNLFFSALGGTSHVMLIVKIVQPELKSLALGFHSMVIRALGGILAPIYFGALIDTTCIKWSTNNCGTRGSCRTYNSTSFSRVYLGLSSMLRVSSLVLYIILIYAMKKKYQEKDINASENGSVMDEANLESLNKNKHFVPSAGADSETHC

OATP1B3 = molecular target: T3, OATP1B3 (Homo sapiens, UniProt Q9NPD5); experiment: Drug uptake in X. laevis oocytes injected with SLCO1B3; assay type: in vitro ADME; conditions: without human serum albumin, 1 µM (darunavir 3 µM, performed once), 18°C, 1hr, mean ± SD; for Drug uptake, OATP1B3: OATP1B3 cRNA injected oocytes; for Drug uptake, Water: water injected control oocytes (Table 3)
T3 sequence (Q9NPD5 1-702): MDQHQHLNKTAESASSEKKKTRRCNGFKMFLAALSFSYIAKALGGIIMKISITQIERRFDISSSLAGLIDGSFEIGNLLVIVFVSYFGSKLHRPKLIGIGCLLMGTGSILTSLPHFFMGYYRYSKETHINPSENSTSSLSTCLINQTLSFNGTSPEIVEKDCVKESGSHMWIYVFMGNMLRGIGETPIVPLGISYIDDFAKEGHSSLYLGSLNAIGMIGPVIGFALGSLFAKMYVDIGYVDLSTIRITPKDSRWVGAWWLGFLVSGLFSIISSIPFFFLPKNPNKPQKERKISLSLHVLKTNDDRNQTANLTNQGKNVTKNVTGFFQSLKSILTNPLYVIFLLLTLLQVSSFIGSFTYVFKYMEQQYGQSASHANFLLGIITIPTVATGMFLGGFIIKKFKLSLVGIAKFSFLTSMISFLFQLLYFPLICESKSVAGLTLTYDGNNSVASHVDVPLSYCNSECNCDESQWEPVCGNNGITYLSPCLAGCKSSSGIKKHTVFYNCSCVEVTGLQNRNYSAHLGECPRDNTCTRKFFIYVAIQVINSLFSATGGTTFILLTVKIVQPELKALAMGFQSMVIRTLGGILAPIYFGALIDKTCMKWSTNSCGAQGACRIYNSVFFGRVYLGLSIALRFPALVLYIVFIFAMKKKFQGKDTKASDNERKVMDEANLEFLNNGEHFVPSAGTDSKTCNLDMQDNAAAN

[2] = assay type: in vivo, human
OATP1B1 [3] = molecular target: T2, OATP1B1; conditions: HEK 293 cells stably transfected with SLCO1B1; cited from earlier work
[4] = independent variable Age (Years)
[5] = independent variable Coadministered protease inhibitor
[6] = independent variable Male Gender
[7] = independent variable SLCO1A2 38T>C
[8] = independent variable SLCO1A2 516A>C
[9] = independent variable SLCO1B1 388A>G
[10] = independent variable SLCO1B1 521T>C
[11] = independent variable SLCO1B3 334T>G
[12] = independent variable Weight (per 10kg)
[13] = patients on lopinavir/ritonavir 400mg/100mg b.d., samples included in the analysis

## Cc1cccc(C)c1OCC(=O)N[C@@H](Cc1ccccc1)[C@@H](O)C[C@H](Cc1ccccc1)NC(=O)[C@H](C(C)C)N1CCCNC1=O [Lopinavir, lopinavir]
OATP1A2; with 2% human serum albumin
  Drug uptake, OATP1A2: 1.65 ± 0.59 pmol/oocyte
  Drug uptake, Water: 0.82 ± 0.24 pmol/oocyte
OATP1A2; without human serum albumin
  Drug uptake, OATP1A2: 4.07 ± 0.67 pmol/oocyte
  Drug uptake, Water: 2.53 ± 0.36 pmol/oocyte
OATP1B1 [1]; with 2% human serum albumin
  Drug uptake, OATP1B1: 1.14 ± 0.41 pmol/oocyte
  Drug uptake, Water: 0.66 ± 0.22 pmol/oocyte
OATP1B1 [1]; without human serum albumin
  Drug uptake, OATP1B1: 4.31 ± 0.72 pmol/oocyte
  Drug uptake, Water: 2.14 ± 0.43 pmol/oocyte
OATP1B3
  Drug uptake, OATP1B3: 2.30 ± 0.66 pmol/oocyte
  Drug uptake, Water: 1.69 ± 0.78 pmol/oocyte
[2]; in words
  lopinavir Cmin with a SNP located in intron 2 of the SLCO1B1 gene: significantly lower
  median plasma lopinavir Cmin, patients homozygous for the C allele at position 521 of SLCO1B1 compared to T homozygotes or heterozygotes: significantly higher
[2]; [4]
  Univariate effect size on lopinavir C2-6: 6.8%
  Univariate effect size on lopinavir Cmin: 1.1%
[2]; [5]
  Univariate effect size on lopinavir C2-6: −14.9%
  Univariate effect size on lopinavir Cmin: −15.5%
[2]; [6]
  Univariate effect size on lopinavir C2-6: 4.2%
  Univariate effect size on lopinavir Cmin: −5.5%
[2]; [7]
  Univariate effect size on lopinavir C2-6: 5.8%
  Univariate effect size on lopinavir Cmin: 4.7%
[2]; [8]
  Univariate effect size on lopinavir C2-6: 5.4%
  Univariate effect size on lopinavir Cmin: −1.0%
[2]; [9]
  Univariate effect size on lopinavir C2-6: −7.1%
  Univariate effect size on lopinavir Cmin: −7.3%
[2]; [10]
  Univariate effect size on lopinavir C2-6: 12.8%
  Univariate effect size on lopinavir Cmin: 12.2%
[2]; independent variable SLCO1B1 Intron 2 (rs4149032)
  Multivariate effect size on lopinavir Cmin: 0.016 (−11) - %
[2]; independent variable SLCO1B1 Intron 2 (rs4149032), C2-6 = 2-6h post dose
  Univariate effect size on lopinavir C2-6: −4.6%
[2]; independent variable SLCO1B1 Intron 2 (rs4149032), Cmin = 10-14h post dose
  Univariate effect size on lopinavir Cmin: −11.9%
[2]; [11]
  Univariate effect size on lopinavir C2-6: −0.2%
  Univariate effect size on lopinavir Cmin: −1.8%
[2]; [12]
  Multivariate effect size on lopinavir Cmin: −17.2%
  Univariate effect size on lopinavir C2-6: −13.7%
  Univariate effect size on lopinavir Cmin: −17.4%
[2]; multivariate model
  C2-6 higher for each variant allele of SLCO1B1 521T>C: 11.1%
  C2-6 higher in patients receiving an additional protease inhibitor: 14.4%
  Cmin higher in patients receiving an additional protease inhibitor: 15.4%
  Cmin lower for each variant allele of SLCO1B1 rs4149032: 11%
  Cmin lower for every 10 Kg increase in body weight: 17.2%
[2]; [13]
  median lopinavir concentration (plasma): 5072 ng/mL
  range of lopinavir concentration (plasma): 114 to 24432 ng/mL

## CC(C)(C)NC(=O)[C@@H]1C[C@@H]2CCCC[C@@H]2CN1C[C@@H](O)[C@H](Cc1ccccc1)NC(=O)[C@H](CC(N)=O)NC(=O)c1ccc2ccccc2n1 [Saquinavir, saquinavir]
OATP1A2; with 2% human serum albumin
  Drug uptake, OATP1A2: 0.45 ± 0.05 pmol/oocyte
  Drug uptake, Water: 0.27 ± 0.03 pmol/oocyte
OATP1A2; without human serum albumin
  Drug uptake, OATP1A2: 2.16 ± 0.71 pmol/oocyte
  Drug uptake, Water: 1.01 ± 0.21 pmol/oocyte
OATP1B1 [1]; with 2% human serum albumin
  Drug uptake, OATP1B1: 0.64 ± 0.23 pmol/oocyte
  Drug uptake, Water: 0.21 ± 0.06 pmol/oocyte
OATP1B1 [1]; without human serum albumin
  Drug uptake, OATP1B1: 1.78 ± 0.44 pmol/oocyte
  Drug uptake, Water: 0.94 ± 0.26 pmol/oocyte
OATP1B3
  Drug uptake, OATP1B3: 2.17 ± 0.61 pmol/oocyte
  Drug uptake, Water: 1.62 ± 0.45 pmol/oocyte
OATP1B1 [3]
  Inhibition of bilirubin uptake through OATP1B1: inhibit bilirubin uptake
